Experimental data reported in patent publication EP1652531A1, “Use of GLP-1 or Analogues in Treatment of Stroke” (Eli Lilly & Company, priority 1998, dated 2006).

What was measured:
STC-1 cells = conditions: exposure of STC-1 cells (Abella et al., 1994); cited from earlier work
NIDDM patients = experiment: Infusion for three hours at each meal during the day, blood glucose in NIDDM patients (Example 2); conditions: five NIDDM patients
[1] = test system: patients having non-insulin dependent diabetes (NIDDM); experiment: Overnight continuous subcutaneous infusion, blood glucose in NIDDM patients (Example 1); conditions: five NIDDM patients; subcutaneous infusion 1.2 pmol/kg/hr for ten hours during the night

| Compound | release of GLP-1 (STC-1 cells) | untoward side effects (NIDDM patients) | hypoglycemia [1] |
| --- | --- | --- | --- |
| 12-O-tetradecanoylphobol-13-acetate [TPA] | significant increases |  |  |
| CC[C@H](C)[C@H](NC(=O)[C@H](Cc1ccccc1)NC(=O)[C@H](CCC(=O)O)NC(=O)[C@H](CCCCN)NC(=O)[C@H](C)NC(=O)[C@H](C)NC(=O)[C@H](CCC(N)=O)NC(=O)CNC(=O)[C@H](CCC(=O)O)NC(=O)[C@H](CC(C)C)NC(=O)[C@H](Cc1ccc(O)cc1)NC(=O)[C@H](CO)NC(=O)[C@H](CO)NC(=O)[C@@H](NC(=O)[C@H](CC(=O)O)NC(=O)[C@H](CO)NC(=O)[C@@H](NC(=O)[C@H](Cc1ccccc1)NC(=O)[C@@H](NC(=O)CNC(=O)[C@H](CCC(=O)O)NC(=O)[C@H](C)NC(=O)[C@@H](N)Cc1c[nH]cn1)[C@@H](C)O)[C@@H](C)O)C(C)C)C(=O)N[C@@H](C)C(=O)N[C@@H](Cc1c[nH]c2ccccc12)C(=O)N[C@@H](CC(C)C)C(=O)N[C@H](C(=O)N[C@@H](CCCCN)C(=O)NCC(=O)N[C@@H](CCCNC(=N)N)C(N)=O)C(C)C [GLP-1(7-36) amide] |  | No untoward side effects | without inducing hypoglycemia in any of the patients |
